Measured values published in paper PMC10014103, “The immunometabolite itaconate stimulates OXGR1 to promote mucociliary clearance during the pulmonary innate immune response” (The Journal of Clinical Investigation, 2023).

Columns and labels:
[1] = test system: primary respiratory epithelial cells from Oxgr1+/+ and Oxgr1–/– mice; assay: Calcium imaging (Fluo-4AM) of primary mouse trachea epithelial cells; format: cell-based; conditions: 670 μM ITA or 100 μM ATP
Experimental: For calcium imaging of human primary bronchial epithelial cells, cells were infected with 2 CRISPR lentiviruses targeting OXGR1 and cultured for 2 days before calcium imaging. For calcium imaging of primary mouse cells, freshly isolated mouse tracheas were cut into rings, placed onto collagen-coated dishes, and cultured in DMEM supplemented with 10% FBS. Cells were loaded with 5 μM Fluo-4AM for 30 minutes in HBSS buffer, washed twice, and incubated for another 15 minutes for fully deesterification of Fluo-4AM. Cells loaded with Fluo-4AM were monitored with the BioTek Cytation 5 Cell imaging system every 300 ms for a total of 1.5 minutes after ligand administration. Fluorescence was quantified with ImageJ software (NIH).

mouse trachea = assay: Ex vivo trachea culture, cilia beating-derived fluorescent bead movement; conditions: 500 μM ITA or 100 μM ATP
Experimental: Tracheas were harvested from mice and cut longitudinally through the middle of the trachealis muscle to expose the lumen of the trachea. Tracheas were then transferred into HBSS buffer and equilibrated for 30 minutes. With the lumen facing down, trachea tissues were transferred into 2 mL HBSS buffer supplemented with 0.5% methylcellulose, red fluorescent beads, 30 mM HEPES, and the indicated ligand. Bead flow was monitored with the BioTek Cytation 5 cell imaging system. Twenty individual beads were tracked from different fields of view in each condition, and the speed of each bead was calculated by […].

human OXGR1 [2] = target: T1, human OXGR1 (Homo sapiens, UniProt Q96P68); assay: Aequorin assay (calcium mobilization) in HEK293 cells overexpressing human OXGR1; format: cell-based
Experimental: (§1) Thirty-six hours after transfection, cells were maintained in serum-free medium for 12 hours and then loaded with 5 μM coelenterazine for 3 hours. Cells were trypsinized and resuspended at a density of 5 × 10^5 cells/mL in HBSS supplemented with 10 mM HEPES and 0.5% BSA. Cell suspensions of 100 μL were aliquoted into 96-well plates.

FLAG-tagged OXGR1 = target: T2, FLAG-tagged OXGR1 (Homo sapiens, UniProt Q96P68); assay: Endocytosis assay of FLAG-tagged OXGR1 in HEK293 cells; format: cell-based; conditions: WT OXGR1, within 10 minutes of ligand treatment
T2 construct: expressed in transfected cells
Experimental: For endocytosis assays, HEK293 cells stably expressing FLAG-OXGR1 were chilled on ice in DMEM medium supplemented with 30 mM HEPES for 10 minutes. […] Unbound antibody was then washed off with prechilled HBSS buffer. […] After ligand stimulation, cells were fixed and permeabilized. Subcellular localization of FLAG-tagged OXGR1 was detected using FITC-donkey anti-rabbit antibody (Invitrogen, Thermo Fisher Scientific), and nuclei were stained with DAPI (MilliporeSigma). Immunofluorescence images were captured with a Leica SP8 laser-scanning confocal microscope.

human OXGR1 [3] = target: T1, human OXGR1; assay: Fluo-4 assay in HEK293 cells expressing human OXGR1; format: cell-based
Experimental: For the Fluo-4AM assay, OXGR1-expressing cells were loaded with 2 μM Fluo-4AM for 30 minutes at 37°C. Excess Fluo-4AM was then washed off with HBSS buffer. After incubation at 37°C for another 10 minutes, cells were transferred onto a 96-well plate.

mouse OXGR1 = target: T3, mouse OXGR1 (Mus musculus, UniProt Q6IYF8); assay: Aequorin assay (calcium mobilization) in HEK293 cells overexpressing mouse OXGR1; format: cell-based; conditions: EC50, aequorin assay, mOXGR1 in HEK293 cells
T3 construct: expressed in transfected cells; host or cells: HEK293
T3 sequence (Q6IYF8 whole entry): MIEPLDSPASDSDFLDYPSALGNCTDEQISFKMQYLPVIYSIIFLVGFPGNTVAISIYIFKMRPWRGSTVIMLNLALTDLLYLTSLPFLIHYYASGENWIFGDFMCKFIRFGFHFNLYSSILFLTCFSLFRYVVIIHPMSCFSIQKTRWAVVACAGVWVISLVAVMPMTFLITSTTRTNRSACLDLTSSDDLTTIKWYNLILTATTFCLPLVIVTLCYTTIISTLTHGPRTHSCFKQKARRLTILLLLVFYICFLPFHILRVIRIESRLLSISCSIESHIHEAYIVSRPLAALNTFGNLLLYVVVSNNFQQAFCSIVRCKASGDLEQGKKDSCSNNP
Experimental: as §1

**Q.** How did the “calcium mobilization, Oxgr1+/+ cells” value [1] turn out when Nc1ncnc2c1ncn2[C@@H]1O[C@H](COP(=O)(O)OP(=O)(O)OP(=O)(O)O)[C@@H](O)[C@H]1O [ATP, reference compound] was run?
**A.** The value was “normal calcium release”.

**Q.** What about the “calcium mobilization, Oxgr1–/– cells” value [1] of the same compound?
**A.** Its value is “normal calcium release”.

**Q.** What about the “movement of beads, trachea from Oxgr1+/+ mice” value (mouse trachea) of the same compound?
**A.** The value was “comparable speed of bead movement”.

**Q.** What about the “movement of beads, trachea from Oxgr1–/– mice” value (mouse trachea) of the same compound?
**A.** The value was “comparable speed of bead movement”.

**Q.** Which results are given for CCCCC/C=C\C\C=C/C=C/C=C/[C@@H](SC[C@H](N)C(=O)O)[C@@H](O)CCCC(=O)O [LTE4, Leukotriene E4, reference compound]?
**A.** calcium response (agonist effect) (human OXGR1 [2]; HEK293 cells overexpressing human OXGR1, aequorin): failed to show any agonizing effect; effect on α-KG– or ITA-triggered intracellular Ca2+ release (human OXGR1 [2]; addition of LTE4, OXGR1-expressing HEK293 cells): did not prevent, and even moderately enhanced; endocytosis of OXGR1 (FLAG-tagged OXGR1): failed to show any agonizing effect

**Q.** How did the EC50 (human OXGR1 [3]) turn out when O=C(O)CCC(=O)C(=O)O [α-KG, α-ketoglutaric acid, reference compound] was run?
**A.** The EC50 was 161 ± 34.7 µM.

**Q.** And the EC50 (human OXGR1 [2])?
**A.** Its EC50 is 248 ± 58.6 µM.

**Q.** What about the EC50 (mouse OXGR1) of the same compound?
**A.** The EC50 was 241 ± 61.1 µM.

**Q.** And the “endocytosis of OXGR1” value (FLAG-tagged OXGR1)?
**A.** Its value is “rapid endocytosis of OXGR1 was triggered”.
